How the values were obtained:
[1] = biological target: RAC-alpha serine/threonine-protein kinase (Homo sapiens, UniProt P31749); experiment: Inhibition of Nano Luc-fused wild type AKT1 (unknown origin) expressed in HEK293 cells using luciferase substrate preincubated for 2 hrs followed by substrate added by NanoBRET Live cell target engagement assay; type: cell-based
[2] = biological target: RAC-beta serine/threonine-protein kinase (Homo sapiens, UniProt P31751); experiment: Inhibition of Nano Luc-fused wild type AKT2 (unknown origin) expressed in HEK293 cells using luciferase substrate preincubated for 2 hrs followed by substrate added by NanoBRET Live cell target engagement assay; type: cell-based
Chain of RAC-beta serine/threonine-protein kinase (P31751 whole entry, the tested form may be a part): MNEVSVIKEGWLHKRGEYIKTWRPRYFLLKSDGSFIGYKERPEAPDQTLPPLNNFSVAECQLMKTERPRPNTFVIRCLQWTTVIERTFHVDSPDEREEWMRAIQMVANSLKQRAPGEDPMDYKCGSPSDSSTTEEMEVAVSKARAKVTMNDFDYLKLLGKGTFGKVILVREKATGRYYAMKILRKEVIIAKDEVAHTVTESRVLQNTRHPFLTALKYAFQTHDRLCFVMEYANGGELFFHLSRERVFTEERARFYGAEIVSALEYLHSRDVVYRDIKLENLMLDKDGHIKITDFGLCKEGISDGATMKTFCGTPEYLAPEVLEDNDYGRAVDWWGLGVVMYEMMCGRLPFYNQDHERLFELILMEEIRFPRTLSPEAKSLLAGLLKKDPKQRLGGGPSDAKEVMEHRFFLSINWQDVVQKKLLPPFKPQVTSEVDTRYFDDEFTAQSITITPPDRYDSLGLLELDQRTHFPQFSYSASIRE

Chain of RAC-alpha serine/threonine-protein kinase (P31749 whole entry, the tested form may be a part): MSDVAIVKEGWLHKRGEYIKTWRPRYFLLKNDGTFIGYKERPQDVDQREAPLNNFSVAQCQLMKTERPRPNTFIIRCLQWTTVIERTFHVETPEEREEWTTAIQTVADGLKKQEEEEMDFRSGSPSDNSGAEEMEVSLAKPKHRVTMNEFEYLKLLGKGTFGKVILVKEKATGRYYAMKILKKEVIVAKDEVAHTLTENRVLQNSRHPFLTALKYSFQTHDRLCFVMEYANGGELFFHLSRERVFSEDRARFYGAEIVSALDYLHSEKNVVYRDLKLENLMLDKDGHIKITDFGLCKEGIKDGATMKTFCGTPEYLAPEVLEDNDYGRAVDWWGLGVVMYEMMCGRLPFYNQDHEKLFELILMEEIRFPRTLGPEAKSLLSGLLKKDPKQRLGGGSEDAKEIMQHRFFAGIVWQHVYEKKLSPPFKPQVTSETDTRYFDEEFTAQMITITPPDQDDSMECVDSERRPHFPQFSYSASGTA

Structure (SMILES)	IC50 [1] [nM]	IC50 [2] [nM]
Nc1ncccc1-c1nc2ccc(-c3ccccc3)nc2n1-c1ccc2c(c1)CC[C@@H]2NC(=O)c1cc(C=O)c2[nH]ncc2c1	≤ 100	≤ 100
CN1CCN(c2cccc(-c3ccc4nc(-c5cccnc5N)n(-c5ccc6c(c5)CC[C@@H]6NC(=O)c5ccc(O)c(C=O)c5)c4n3)c2)CC1	≤ 10	≤ 10
Nc1ncccc1-c1nc2ccc(-c3ccccc3)nc2n1-c1ccc2c(c1)CC[C@@H]2NC(=O)c1cc(C=O)c(O)c(F)c1F	≤ 100	≤ 100
CC(=O)Nc1ccc(C(=O)N[C@H]2CCc3cc(-n4c(-c5cccnc5N)nc5ccc(-c6ccccc6)nc54)ccc32)cc1C=O	≤ 10	≤ 100
COc1cnn(-c2ccc3nc(-c4cccnc4N)n(-c4ccc5c(c4)CC[C@@H]5NC(=O)c4ccc(O)c(C=O)c4)c3n2)c1	≤ 100	≥ 2000
CS(=O)(=O)Nc1ccc(C(=O)N[C@H]2CCc3cc(-n4c(-c5cccnc5N)nc5ccc(-n6cccn6)nc54)ccc32)cc1C=O	≤ 100	≥ 2000
Nc1ncccc1-c1nc2ccc(-c3ccccc3F)nc2n1-c1ccc2c(c1)CC[C@@H]2NC(=O)c1ccc(O)c(C=O)c1	≤ 100	≤ 100
Nc1ncccc1-c1nc2ccc(-n3cccn3)nc2n1-c1ccc2c(c1)CC[C@@H]2NC(=O)c1cc(C=O)c(O)c(F)c1F	≤ 100	≤ 100
